This note sets out measurements from patent US20210122763A1, “OGA INHIBITOR COMPOUNDS” (Janssen Pharmaceutica NV, priority 2018, published 2021).

This assay addresses T1, OGA (Mus musculus, UniProt Q9EQQ9).
T1 construct: Brains were immediately removed from the skull; from tissue; host or cells: mouse brain (forebrain area of sagittal sections)
T1 sequence (Q9EQQ9 1-916): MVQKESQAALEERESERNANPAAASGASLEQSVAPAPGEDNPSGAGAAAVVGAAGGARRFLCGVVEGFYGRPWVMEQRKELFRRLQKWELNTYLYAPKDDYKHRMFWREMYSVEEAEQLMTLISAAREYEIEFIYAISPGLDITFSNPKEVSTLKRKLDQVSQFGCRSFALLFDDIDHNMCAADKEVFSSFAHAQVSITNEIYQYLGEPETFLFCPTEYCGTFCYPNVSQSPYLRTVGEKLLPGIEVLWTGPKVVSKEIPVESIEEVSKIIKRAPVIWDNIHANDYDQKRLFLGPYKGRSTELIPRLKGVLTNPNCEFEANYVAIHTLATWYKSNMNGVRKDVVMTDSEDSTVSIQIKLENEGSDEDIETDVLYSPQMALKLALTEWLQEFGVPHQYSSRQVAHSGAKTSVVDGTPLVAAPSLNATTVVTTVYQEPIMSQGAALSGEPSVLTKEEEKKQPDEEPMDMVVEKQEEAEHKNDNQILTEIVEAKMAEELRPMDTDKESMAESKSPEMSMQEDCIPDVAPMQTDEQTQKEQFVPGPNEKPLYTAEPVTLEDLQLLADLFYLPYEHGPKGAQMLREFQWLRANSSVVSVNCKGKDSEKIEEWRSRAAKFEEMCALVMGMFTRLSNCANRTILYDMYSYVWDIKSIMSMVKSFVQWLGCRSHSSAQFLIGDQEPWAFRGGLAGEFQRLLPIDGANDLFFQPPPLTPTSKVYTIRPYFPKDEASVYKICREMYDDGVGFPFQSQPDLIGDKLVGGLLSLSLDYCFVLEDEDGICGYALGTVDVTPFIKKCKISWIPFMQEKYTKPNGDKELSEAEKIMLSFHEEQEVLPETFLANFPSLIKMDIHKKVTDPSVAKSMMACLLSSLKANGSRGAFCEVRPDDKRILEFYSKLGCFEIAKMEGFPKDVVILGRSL
Put plainly: Ex vivo OGA occupancy assay using [3H]-ligand. Conditions: male NMRI or C57Bl6j mice, p.o., 24 h after administration, forebrain area of brain sections, 3 nM [3H]-ligand, normalised to vehicle; for receptor occupancy at 25 mg/kg: mouse, po, read-out: Occupancy (% +/− sd). In kind it is in vivo. As for the experimental part: 3) Ex Vivo OGA Occupancy Assay Using [3H]-Ligand Drug Treatment and Tissue Preparation
Male NMRI or C57Bl6j mice were treated by oral (p.o.) administration of vehicle or compound. Animals were sacrificed 24 hours after administration. Brains were immediately removed from the skull, hemispheres were separated and the right hemisphere, for ex vivo OGA occupancy assay, was rapidly frozen in dry-ice cooled 2-methylbutane (−40° C.). […] sagittal sections were cut using a Leica CM 3050 cryostat-microtome (Leica, Belgium), thaw-mounted on microscope slides (SuperFrost Plus Slides, Thermo Fisher Scientific) and stored at −20° C. until use. After thawing, sections were dried under a cold stream of air. The sections were not washed prior to incubation. The 10 minutes incubation with 3 nM [^3H]-ligand was rigorously controlled. All brain sections (from compound-treated and vehicle-treated animals) were incubated in parallel. After incubation, the excess of [^3H]-ligand was washed off in ice-cold buffer (PBS 1× and 1% BSA) 2 times 10 minutes, followed by a quick dip in distilled water. The sections were then dried under a stream of cold air.
QUANTITATIVE AUTORADIOGRAPHY AND DATA ANALYSIS Radioactivity in the forebrain area of brain slices was measured using a P-imager with M3 vision analysis software (Biospace Lab, Paris). Specific binding was calculated as the difference between total binding and non-specific binding measured in Thiamet-G (10 μM) treated sections. Specific binding in sections from drug treated animals was normalised to binding in sections from vehicle treated mice to calculate percentage of OGA occupancy by the drug.

Take `Cc1cc(OC2CCN([C@@H](C)c3nc4nc(C)sc4cc3F)CC2)cc(C)n1` (single isomer, unassigned) [Compound 83]: the receptor occupancy at 25 mg/kg is 97%. Still for that read-out and setting: next, `Cc1cc(OC2CCN([C@H](C)c3nc4c(cc3F)CCO4)CC2)cc(C)n1` (single isomer, unassigned) [Compound 144]: 94.7%.

For the compound `Cc1cc(OC2CCN([C@H](C)c3nc4c(cc3F)OCCO4)CC2)cc(C)n1` (single isomer, unassigned) [Compound 148], the receptor occupancy at 25 mg/kg is 84.3%. The “Occupancy (% +/− sd)” value (25 mg/kg) was 77.67 +/− 10.5%. Take `Cc1ncc(OC2CCN(C(C)c3nc4c(cc3F)CCO4)CC2)cn1` (centres unmarked) [Compound 95]: the receptor occupancy at 25 mg/kg came to 20%.
